Measurements as given in patent US10786522B2, “Compositions that include anthocyanidins and methods of use” (Maqui NewLife S.A., priority 2009, dated 2020).

What was measured:
NF-κB = NF-κB luciferase reporter assay in HL-60 cells; format: cell-based, Human; conditions: positive control, concentration not given
Protocol: We examined the effect of anthocyanidins on NF-κB activation using a luciferase reporter assay in HL-60 cells (Human promyelocytic leukemia cells). HL-60 cells in IMDM medium were transfected with a reporter vector with an NF-kB consensus sequence located in the luciferase promoter for 24 h at 37° C., then were incubated with delphinidin-rich anthocyanidins diluted 1:500000, 1:50000, and 1:5000. PMA was used as positive control. Luciferase activity was measured with a Dual luciferase assay kit (Promega) according to the supplier's instructions. A vector that constitutively expressed renilla luciferase was used to standardize the assay.

PPAR-γ = assay: PPAR-γ-Luc reporter assay in HL-60 cells; format: cell-based, Human; conditions: control substances, 12 h, concentration not given
Protocol: We examined the effect of delphindin-rich anthocyanidins on PPAR-γ activation. HL-60 cells in IMDM medium were transfected with the reporter vectors PPAR-γ-Luc (5 μg) (Panomics) and TK-RL (1 μg) (Promega) using Fugene 6 reagent (Roche), and cultured for 24 hr. Then, the cells were incubated for 12 h in 0.175, 1.75, or 17.5 μg/ml of delphindin-rich anthocyanidins, phorbol myristate acetate (PMA), 15-deoxi-d 12,14-prostaglandin J2 (PGj2), or tumor necrosis factor alpha (TNFα) as controls. Luciferase activity was measured using the Dual-Luciferase Reporter Assay kit (DLR) from Promega in a luminometer (Luminoskan).

In the case of CCCCCCCCCCCCCC(=O)O[C@@H]1[C@@H](C)[C@@]2(O)[C@@H](C=C(CO)C[C@]3(O)C(=O)C(C)=C[C@@H]23)[C@@H]2C(C)(C)[C@]12OC(C)=O [PMA, phorbol myristate acetate], the “Average percentage activity of control [pNF-κB/pRL-luc]” value (NF-κB) is reported as 50% and the “Average percentage activity of control [PPAR-γ-Luc/TK-RL] ± SD” value (PPAR-γ) is reported as 527.5 ± 536.3%.
